One may read the IC50 as the concentration that inhibits the measured activity by half.

Where only a bound is given, the exact number is not on record here.

The target of this assay is T1, NaV 1.7 (Homo sapiens, UniProt Q15858).
T1 construct: expressed in transfected cells; host or cells: HEK cells
T1 sequence (Q15858 whole entry): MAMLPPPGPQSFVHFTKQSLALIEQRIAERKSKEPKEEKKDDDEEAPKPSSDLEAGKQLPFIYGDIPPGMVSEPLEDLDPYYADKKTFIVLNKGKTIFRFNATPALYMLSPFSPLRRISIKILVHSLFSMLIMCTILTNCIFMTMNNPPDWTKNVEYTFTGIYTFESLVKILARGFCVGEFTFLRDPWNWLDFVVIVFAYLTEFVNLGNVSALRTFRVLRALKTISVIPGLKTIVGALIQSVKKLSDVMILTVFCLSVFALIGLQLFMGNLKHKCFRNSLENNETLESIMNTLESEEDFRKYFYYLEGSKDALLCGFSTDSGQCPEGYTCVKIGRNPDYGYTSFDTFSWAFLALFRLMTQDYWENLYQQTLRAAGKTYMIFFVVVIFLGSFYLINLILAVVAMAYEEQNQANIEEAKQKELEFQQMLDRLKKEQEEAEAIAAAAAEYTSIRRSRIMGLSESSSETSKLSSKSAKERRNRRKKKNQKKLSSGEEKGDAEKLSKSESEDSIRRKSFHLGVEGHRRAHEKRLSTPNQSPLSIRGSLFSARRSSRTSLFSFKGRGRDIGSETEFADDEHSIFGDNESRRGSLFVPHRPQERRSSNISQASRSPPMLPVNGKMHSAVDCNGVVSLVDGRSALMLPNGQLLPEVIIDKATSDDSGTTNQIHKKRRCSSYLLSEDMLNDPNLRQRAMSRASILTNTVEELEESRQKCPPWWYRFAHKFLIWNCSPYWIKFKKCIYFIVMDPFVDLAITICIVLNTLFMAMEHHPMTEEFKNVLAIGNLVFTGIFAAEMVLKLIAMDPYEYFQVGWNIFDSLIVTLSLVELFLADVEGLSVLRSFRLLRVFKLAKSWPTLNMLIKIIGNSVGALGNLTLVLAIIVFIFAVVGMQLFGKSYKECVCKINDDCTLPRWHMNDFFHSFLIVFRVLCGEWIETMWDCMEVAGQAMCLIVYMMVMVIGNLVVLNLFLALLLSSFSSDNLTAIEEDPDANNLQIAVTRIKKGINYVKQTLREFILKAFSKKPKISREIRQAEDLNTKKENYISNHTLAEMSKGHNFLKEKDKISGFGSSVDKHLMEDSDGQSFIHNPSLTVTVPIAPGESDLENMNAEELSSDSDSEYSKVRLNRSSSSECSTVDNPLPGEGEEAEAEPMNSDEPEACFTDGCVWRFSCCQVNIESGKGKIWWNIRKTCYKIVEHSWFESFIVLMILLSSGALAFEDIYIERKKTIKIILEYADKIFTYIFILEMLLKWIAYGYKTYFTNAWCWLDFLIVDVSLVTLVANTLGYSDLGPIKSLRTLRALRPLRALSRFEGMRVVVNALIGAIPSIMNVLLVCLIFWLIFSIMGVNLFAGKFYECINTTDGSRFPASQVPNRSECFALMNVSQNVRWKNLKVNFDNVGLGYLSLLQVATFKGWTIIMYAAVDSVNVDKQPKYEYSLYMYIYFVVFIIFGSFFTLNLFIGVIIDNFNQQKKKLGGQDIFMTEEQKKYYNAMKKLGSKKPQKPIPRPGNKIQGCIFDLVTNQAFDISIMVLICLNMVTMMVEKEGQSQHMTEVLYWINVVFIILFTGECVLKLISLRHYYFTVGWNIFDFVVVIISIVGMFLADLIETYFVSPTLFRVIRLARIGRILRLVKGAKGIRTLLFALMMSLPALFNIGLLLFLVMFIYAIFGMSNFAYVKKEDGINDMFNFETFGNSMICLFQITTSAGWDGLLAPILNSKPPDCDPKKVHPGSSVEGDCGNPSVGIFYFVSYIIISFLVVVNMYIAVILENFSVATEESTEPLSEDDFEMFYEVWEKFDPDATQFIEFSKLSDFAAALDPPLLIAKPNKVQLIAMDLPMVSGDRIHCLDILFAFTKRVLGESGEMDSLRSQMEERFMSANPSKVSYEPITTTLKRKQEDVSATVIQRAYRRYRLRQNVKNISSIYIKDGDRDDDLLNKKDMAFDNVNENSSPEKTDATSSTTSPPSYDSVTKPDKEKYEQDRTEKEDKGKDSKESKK
The assay can be described thus: E-VIPR optical membrane potential assay with electrical stimulation. It counts as cell-based. Particulars: active against one or more sodium channels; assay/subtype not specified in Table 4; read-out: IC50 Binned Activity Data. In a few lines: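 HEK cells expressing human NaV1.7, loaded with CC2-DMPE/DiSBAC6(3) FRET dyes, then exposed to compounds for 20-35 min at room temperature (0.625% DMSO). Electrical stimulation applied for 9 s with 400 Hz scanning. Read-out is the background-subtracted 460/580 nm emission ratio, normalized.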
Regarding `COc1cc(C(=O)N2CCC3(c4ccccn4)C(C2)C3(F)F)ccc1OCC1CC(F)(F)C1` (centres unmarked) [Compound 259], the IC50 is not above 2000 nM. For `COc1cc(C(=O)N2CCC3(c4ccccn4)C(C2)C3(F)F)ccc1OCCOC(F)(F)F` (centres unmarked) [Compound 260] the value was not above 2000 nM; for `O=C(c1ccc(S(=O)(=O)C(F)F)cc1)N1CC[C@]2(c3cccc(F)c3)OCOC2C1` (some centres unmarked) [Compound 261], more than 5000 nM; for `COc1nc(C(=O)N2CC[C@]3(c4cccc(F)c4F)OCOC3C2)ccc1OCC(F)(F)C(F)F` (some centres unmarked) [Compound 262], not above 2000 nM. To `COc1nc(C(=O)N2CC[C@]3(c4cccc(F)c4F)OCOC3C2)ccc1OC(C)C(F)(F)F` (some centres unmarked) [Compound 263] belongs not above 2000 nM; to `COc1nc(C(=O)N2CC[C@]3(c4cccc(F)c4)OCOC3C2)ccc1OC(C)C(F)(F)F` (some centres unmarked) [Compound 264], not above 2000 nM; to `COc1nc(C(=O)N2CC[C@]3(c4ccccc4)OCOC3C2)ccc1OCC1(C(F)(F)F)CC1` (some centres unmarked) [Compound 265], not above 2000 nM.

As for `COc1cc(C(=O)N2CC[C@@]3(c4ccccn4)CC3C2)ccc1OCCOC(F)(F)F` (some centres unmarked) [Compound 266], the IC50 was not above 2000 nM. Regarding `COc1nc(C(=O)N2CC[C@]3(c4cccc(C(F)(F)F)n4)OCOC3C2)ccc1OCC1CC(F)(F)C1` (some centres unmarked) [Compound 267], the IC50 was not above 2000 nM. Take `COc1nc(C(=O)N2CC[C@]3(c4cccc(F)c4)OCOC3C2)ccc1OCC1(C(F)(F)F)CC1` (some centres unmarked) [Compound 268]: the IC50 is not above 2000 nM.

As for `[2H]C1([2H])OC2CN(C(=O)c3ccc(OCC4(C(F)(F)F)CC4)c(OC)n3)CC[C@]2(c2cc(F)cc(F)c2)O1` (some centres unmarked) [Compound 269], the IC50 is not above 2000 nM.

Regarding `COc1nc(C(=O)N2CC[C@]3(c4cccc(Cl)c4)OCOC3C2)ccc1OCC1(C(F)(F)F)CC1` (some centres unmarked) [Compound 270], the IC50 was not above 2000 nM. As to `COc1nc(C(=O)N2CC[C@]3(c4cccc(F)c4F)OCOC3C2)ccc1OCC1(C(F)(F)F)CC1` (some centres unmarked) [Compound 271], the IC50 is not above 2000 nM.

In the case of `COc1nc(C(=O)N2CC[C@]3(c4cccc(C(F)(F)F)n4)OCOC3C2)ccc1OCCOC(F)(F)F` (some centres unmarked) [Compound 272], the IC50 was not above 2000 nM. To `COc1cc(C(=O)N2CC[C@]3(c4cccc(C(F)(F)F)n4)OCOC3C2)ccc1OC(C)C(F)(F)F` (some centres unmarked) [Compound 273] belongs not above 2000 nM; to `COc1cc(C(=O)N2CC[C@]3(c4cccc(C(F)(F)F)n4)OCOC3C2)ccc1OCCC(F)(F)F` (some centres unmarked) [Compound 274], not above 2000 nM; to `COc1cc(C(=O)N2CC[C@]3(c4cccc(C(F)(F)F)n4)OCOC3C2)ccc1OCC1CC(F)(F)C1` (some centres unmarked) [Compound 275], not above 2000 nM.

`COc1cc(C(=O)N2CC[C@]3(c4ccccn4)COC[C@@H]3C2)ccc1OCCOC(F)(F)F` [Compound 276]: the IC50 is more than 5000 nM. For `COc1cc(C(=O)N2CC[C@]3(c4ccccn4)C(=O)OCC3C2)ccc1OCCOC(F)(F)F` (some centres unmarked) [Compound 277] the value was not above 2000 nM; for `COc1cc(C(=O)N2CC[C@@]3(c4ccccn4)COCC3C2)ccc1OCCOC(F)(F)F` (some centres unmarked) [Compound 278], not above 2000 nM. For `[2H]C1([2H])OC2CN(C(=O)c3ccc(OCC4CC(F)(F)C4)c(OC)n3)CC[C@]2(c2cccc(F)c2)O1` (some centres unmarked) [Compound 279] the value was not above 2000 nM; for `[2H]C1([2H])OC2CN(C(=O)c3ccc(OCC4CC(F)(F)C4)c(OC)n3)CC[C@]2(c2cc(F)cc(F)c2)O1` (some centres unmarked) [Compound 280], not above 2000 nM. Consider `COc1nc(C(=O)N2CC[C@]3(c4cccc(F)c4F)OCOC3C2)ccc1OCC1CC(F)(F)C1` (some centres unmarked) [Compound 281], for which the IC50 was not above 2000 nM.

In the case of `COc1cc(C(=O)N2CC[C@]3(c4cccc(F)c4F)OCOC3C2)ccc1OCCC(F)(F)F` (some centres unmarked) [Compound 282], the IC50 was not above 2000 nM.

Take `COc1cc(C(=O)N2CC[C@]3(c4cccc(Cl)c4)OCOC3C2)ccc1OCCOC(F)(F)F` (some centres unmarked) [Compound 283]: the IC50 was not above 2000 nM. To `[2H]C1([2H])OC2CN(C(=O)c3ccc(OCC4CCC4)c(OC)n3)CC[C@]2(c2cccc(F)c2)O1` (some centres unmarked) [Compound 284] belongs not above 2000 nM; to `COc1cc(C(=O)N2CCC3(c4ccccn4)CC3C2)ccc1OCCOC(F)(F)F` (centres unmarked) [Compound 285], not above 2000 nM. To `COc1cc(C(=O)N2CC[C@]3(c4cc(F)ccc4F)OCOC3C2)ccc1OC(C)C(F)(F)F` (some centres unmarked) [Compound 286] belongs not above 2000 nM; to `COc1cc(C(=O)N2CC[C@]3(c4cc(F)ccc4F)OCOC3C2)ccc1OCCC(F)(F)F` (some centres unmarked) [Compound 287], not above 2000 nM; to `COc1cc(C(=O)N2CC[C@]3(c4cc(F)ccc4F)OCOC3C2)ccc1OCC1CC(F)(F)C1` (some centres unmarked) [Compound 288], not above 2000 nM. To `COc1nc(C(=O)N2CC[C@]3(c4cc(F)ccc4F)OCOC3C2)ccc1OCCOC(F)(F)F` (some centres unmarked) [Compound 289] belongs not above 2000 nM; to `COc1cc(C(=O)N2CC[C@]3(c4cccc(C#N)c4)OCOC3C2)ccc1OC(C)C(F)(F)F` (some centres unmarked) [Compound 290], more than 5000 nM; to `COc1cc(C(=O)N2CC[C@]3(c4cccc(C#N)c4)OCOC3C2)ccc1OCC1CC(F)(F)C1` (some centres unmarked) [Compound 291], not above 2000 nM. `COc1nc(C(=O)N2CC[C@]3(c4cccc(C#N)c4)OCOC3C2)ccc1OCCOC(F)(F)F` (some centres unmarked) [Compound 292]: the IC50 was not above 2000 nM.

In the case of `COc1cc(C(=O)N2CC[C@]3(c4cccc(C#N)c4)OCOC3C2)ccc1OCCOC(F)(F)F` (some centres unmarked) [Compound 293], the IC50 is not above 2000 nM. For `O=C(c1cnc(OCCOC(F)(F)F)c(Cl)c1)N1CC[C@]2(c3ccccn3)OCOC2C1` (some centres unmarked) [Compound 294] the value was not above 2000 nM; for `O=C(c1cnc(OCCOC(F)(F)F)c(Cl)c1)N1CC[C@]2(c3ccccc3)OCOC2C1` (some centres unmarked) [Compound 295], not above 2000 nM; for `O=C(c1cnc(OCCOC(F)(F)F)c(Cl)c1)N1CCC2(c3ccc(F)cc3)CC2C1` (centres unmarked) [Compound 296], 2000 to 5000 nM. For `COc1cc(C(=O)N2CCC3(c4ccc(F)cc4)CC3C2)ccc1OC(C)C(F)(F)F` (centres unmarked) [Compound 297] the value was more than 5000 nM; for `COc1cc(C(=O)N2CCC3(c4ccc(F)cc4)CC3C2)ccc1OCC1CC(F)(F)C1` (centres unmarked) [Compound 298], not above 2000 nM; for `COc1nc(C(=O)N2CCC3(c4ccc(F)cc4)CC3C2)ccc1OCCOC(F)(F)F` (centres unmarked) [Compound 299], not above 2000 nM.

Regarding `COc1cc(C(=O)N2CCC3(c4ccc(F)cc4)CC3C2)ccc1OCCOC(F)(F)F` (centres unmarked) [Compound 300], the IC50 was not above 2000 nM. To `O=C(c1ccc(OCCOC(F)(F)F)c(Cl)c1)N1CCC2(c3ccc(F)cc3)CC2C1` (centres unmarked) [Compound 301] belongs not above 2000 nM; to `[2H]C1([2H])OC2CN(C(=O)c3ccc(OCCOC(F)(F)F)c(OC)c3)CC[C@]2(c2ccccc2)O1` (some centres unmarked) [Compound 302], not above 2000 nM. To `[2H]C1([2H])OC2CN(C(=O)c3ccc(OCCOC(F)(F)F)c(C)n3)CC[C@]2(c2ccccn2)O1` (some centres unmarked) [Compound 303] belongs not above 2000 nM. With `[2H]C1([2H])OC2CN(C(=O)c3ccc(OCCOC(F)(F)F)c(Cl)c3)CC[C@]2(c2ccccn2)O1` (some centres unmarked) [Compound 304], the IC50 is not above 2000 nM. In the case of `[2H]C1([2H])OC2CN(C(=O)c3ccc(OCCOC(F)(F)F)c(OC)c3)CC[C@]2(c2ccccn2)O1` (some centres unmarked) [Compound 305], the IC50 is not above 2000 nM.

Consider `[2H]C1([2H])OC2CN(C(=O)c3ccc(OCCOC(F)(F)F)c(C)n3)CC[C@]2(c2cccc(F)c2)O1` (some centres unmarked) [Compound 306], for which the IC50 was not above 2000 nM.

`[2H]C1([2H])O[C@@H]2CN(C(=O)c3ccc(OC(C)C(F)(F)F)c(OC)c3)CC[C@]2(c2cccc(F)c2)O1` (some centres unmarked) [Compound 307]: the IC50 was not above 2000 nM. To `[2H]C1([2H])OC2CN(C(=O)c3ccc(OCCOC(F)(F)F)c(C)n3)CC[C@]2(c2cc(F)cc(F)c2)O1` (some centres unmarked) [Compound 308] belongs not above 2000 nM; to `[2H]C1([2H])OC2CN(C(=O)c3ccc(OCCOC(F)(F)F)c(OC)n3)CC[C@]2(c2cc(F)cc(F)c2)O1` (some centres unmarked) [Compound 309], not above 2000 nM. For the compound `COc1cc(C(=O)N2CC[C@]3(c4ccccn4)OC(C)(C)OC3C2)ccc1OCCOC(F)(F)F` (some centres unmarked) [Compound 310], the concentration for half-maximal inhibition (IC50) is not above 2000 nM. To `CC(Oc1ccc(C(=O)N2CC[C@]3(c4ccccn4)OCOC3C2)cc1C(F)(F)F)C(F)(F)F` (some centres unmarked) [Compound 311] belongs not above 2000 nM. To `O=C(c1ccc(OCC2CC(F)(F)C2)c(C(F)(F)F)c1)N1CC[C@]2(c3ccccn3)OCOC2C1` (some centres unmarked) [Compound 312] belongs not above 2000 nM; to `CC(F)(F)COc1ccc(C(=O)N2CC[C@]3(c4ccccn4)OCOC3C2)cc1C(F)(F)F` (some centres unmarked) [Compound 313], 2000 to 5000 nM. Turning to `COc1cc(C(=O)N2CC[C@]3(c4cccc(OCC(C)C)n4)OCOC3C2)ccc1OCCOC(F)(F)F` (some centres unmarked) [Compound 314], the IC50 was not above 2000 nM.

The values above are taken from US10233191B2, “Fused piperidine amides as modulators of ion channels” (Vertex Pharmaceuticals Incorporated, priority 2013, dated 2019).
